Measured values: patent publication US12139488B2, “Pyrido[3,2-d]pyrimidine compounds uses thereof for treating a proliferative disease” (Universite de Montreal, priority 2021, dated 2024)

system: pERK in HCT-116 cells (KRAS G13D); assay: Phospho-ERK inhibition (AlphaLISA SureFire Ultra p-ERK 1/2), HCT116; format: cell-based, human; settings: HCT116 cells; Ymin in brackets
Experimental: (§1) All cancer cell lines (A375, A101D, A2058, RKO, HT29 SK-MEL 30, IPC298, HepG2, HCT-116, Lovo, SWV620, SW480, NCI-H358, NCI-H2122, Calu-6, NCIH2087, NCIH1755, NCIH1666 and Mewo) were obtained from ATCC and cultured in RPMI-1640 medium (Gibco) supplemented with 5% heat inactivated fetal bovine serum (FBS, Wisent) at 37° C. under 5% CO2. Cells were maintained in T175 flasks (Greiner). They were passaged by removing the culture medium, washing once in 10 mL of room temperature Phosphate Buffered Saline (PBS; Wisent) and incubating at 37° C. with 2 mL of 0.05% Trypsin (Thermo-Fisher). Trypsin was then inactivated by adding complete growth medium and the cells were then replated in a T175 culture dish at the appropriate dilution. All cell lines were routinely tested for mycoplasma contamination. Tissue type and mutational status of each cell line can be found in Table B.
(§2) AlphaLISA® SureFire® Ultra™ p-ERK 1/2 (Thr202/Tyr204) analysis was conducted on cells plated in 100 μL of complete RPMI-1640 growth medium in 96-well flat-bottomed transparent dishes (Costar) at a density indicated in Table C. Cells were maintained overnight at 37° C. under 5% CO2 before treatment with compounds' dilution series for one hour. The cell density in cells/cm^2 corresponds to cell number divided by the area of one well of a 96-well plate ([…]).
(§3) In a dilution series 100 μL/well of test substance dilution prepared in complete RPMI-1640 growth media was added to the cells. The dilution series is selected so that ten concentrations cover a range from 10 μM to 0.33 nM. If necessary the initial concentration of 10 μM is increased to 100 μM or lowered to 1 μM (as in the case of A375 and H1666 cells, which are generally more sensitive to the compounds) and further dilution is carried out accordingly. The final concentration of DMSO in the assay is set at 0.5%.
(§4) After treatment, media was removed and cells were lysed in 50 μL of 1× AlphaScreen Ultra Lysis Buffer (Perkin Elmer). The AlphaLISA® SureFire® Ultra™ p-ERK 1/2 (Thr202/Tyr2O4) (PerkinElmer) reactions were performed with 5 μL of cell lysate according to the manufacturer's specifications in 384-well proxyplates (Perkin Elmer) followed by overnight incubation of the reactions at room temperature in a humidified chamber. After completion of the reactions, the signals were recorded on an EnVision plate reader (Perkin Elmer) using built in AlphaLISA® settings.
(§5) The effect of each compound dilution on the pERK signal was expressed in % inhibition and calculated as follows. An internal 100% inhibition control ([…] trametinib, cat #HY-10999; MedChem Express; CAS #871700-17-3) was included in each plate and used as a measure of pERK background. First, the value obtained for trametinib was subtracted from each data point. The average of DMSO (vehicle) controls (set as 0% inhibition) was established and used to calculate % inhibition: % inhibition=100*(1-((pERK signalcompound)/(pERK signalDMSO)))
(§6) The ability of each compound to inhibit pERK signal was expressed as an IC50 value obtained by plotting the inhibition values for each data point of a dilution series and fitting the obtained curves using a log(agonist) versus response-variable slope (four parameters) function using GraphPadPrism (V7.0) or Dotmatics Screening Ultra platform.
(§7) When present, paradoxical pERK induction is inferred from the negative % inhibition values observed in the pERK IC50 curves of a compound.

Row | Structure (SMILES) | HCT116 pERK Ymin % [%]
1 | COc1ccc(S(=O)(=O)Nc2ccc(F)c(Nc3ncnc4ccc(-c5cccc(CO)c5)nc34)c2F)c(C)c1 [Ex 74] | 1
2 | N#Cc1cccc(-c2ccc3ncnc(Nc4c(F)ccc(NS(=O)(=O)c5ccccc5Cl)c4F)c3n2)c1 [Ex 77] | −8
3 | N#Cc1ccc(-c2ccc3ncnc(Nc4c(F)ccc(NS(=O)(=O)c5ccccc5Cl)c4F)c3n2)cc1 [Ex 78] | −9
4 | COc1ccc(S(=O)(=O)Nc2ccc(F)c(Nc3ncnc4ccc(-n5cnc6c(NC(C)=O)cccc65)nc34)c2F)c(C)c1 [Ex 79] | 1.5
5 | Cc1c([N+](=O)[O-])ncn1-c1ccc2ncnc(Nc3c(F)ccc(NS(=O)(=O)c4ccccc4Cl)c3F)c2n1 [Ex 82] | −5
6 | COc1ccc(S(=O)(=O)Nc2ccc(F)c(Nc3ncnc4ccc(-n5cc(C(N)=O)c6ccccc65)nc34)c2F)c(C)c1 [Example 69] | −1
7 | COc1ccc(S(=O)(=O)Nc2ccc(F)c(Nc3ncnc4ccc(-n5cnc6c([N+](=O)[O-])cccc65)nc34)c2F)c(C)c1 [Example 70] | −3
8 | COc1ccc(S(=O)(=O)Nc2ccc(F)c(Nc3ncnc4ccc(-c5ccc(OC)nc5)nc34)c2F)c(C)c1 [Example 71] | −4
9 | NC(=O)c1cccc(-c2ccc3ncnc(Nc4c(F)ccc(NS(=O)(=O)c5ccccc5Cl)c4F)c3n2)c1 [Example 80] | 11
10 | NC(=O)c1ccc(-c2ccc3ncnc(Nc4c(F)ccc(NS(=O)(=O)c5ccccc5Cl)c4F)c3n2)cc1 [Example 81] | −4
11 | Nc1cccc2c1nnn2-c1ccc2ncnc(Nc3c(F)ccc(NS(=O)(=O)c4ccccc4Cl)c3F)c2n1 [Example 92] | −4.6
12 | O=C(c1cn(-c2ccc3ncnc(Nc4c(F)ccc(NS(=O)(=O)c5ccccc5Cl)c4F)c3n2)c2ccccc12)N1CCOCC1 [Example 109] | −1.7
13 | Cc1c(Cl)cccc1S(=O)(=O)Nc1ccc(F)c(Nc2ncnc3ccc(-n4nc(C(=O)N5CCNCC5)c5ccccc54)nc23)c1F [Example 127] | −1.2

same assay, conditions: HCT116 cells; class symbol

Row | IC50 [µM] | Structure (SMILES)
14 | < 0.5 | O=S(=O)(Nc1ccc(F)c(Nc2ncnc3ccc(-n4cnc5c(CCO)cccc54)nc23)c1F)c1cccc(Cl)c1Cl [Example 556]

same assay, conditions: HCT116 cells; class symbol before the bracket

Row | Structure (SMILES) | IC50 [µM]
15 | COc1ccc(S(=O)(=O)Nc2ccc(F)c(Nc3ncnc4ccc(-c5cccc(CO)c5)nc34)c2F)c(C)c1 [Ex 74] | 1 to 10
16 | N#Cc1cccc(-c2ccc3ncnc(Nc4c(F)ccc(NS(=O)(=O)c5ccccc5Cl)c4F)c3n2)c1 [Ex 77] | 1 to 10
17 | N#Cc1ccc(-c2ccc3ncnc(Nc4c(F)ccc(NS(=O)(=O)c5ccccc5Cl)c4F)c3n2)cc1 [Ex 78] | 1 to 10
18 | COc1ccc(S(=O)(=O)Nc2ccc(F)c(Nc3ncnc4ccc(-n5cnc6c(NC(C)=O)cccc65)nc34)c2F)c(C)c1 [Ex 79] | 0.5 to 1
19 | Cc1c([N+](=O)[O-])ncn1-c1ccc2ncnc(Nc3c(F)ccc(NS(=O)(=O)c4ccccc4Cl)c3F)c2n1 [Ex 82] | 1 to 10
20 | COc1ccc(S(=O)(=O)Nc2ccc(F)c(Nc3ncnc4ccc(-n5cc(C(N)=O)c6ccccc65)nc34)c2F)c(C)c1 [Example 69] | 1 to 10
21 | COc1ccc(S(=O)(=O)Nc2ccc(F)c(Nc3ncnc4ccc(-n5cnc6c([N+](=O)[O-])cccc65)nc34)c2F)c(C)c1 [Example 70] | 1 to 10

Continued, values first:

Row | IC50 [µM] | Structure (SMILES)
22 | 1 to 10 | COc1ccc(S(=O)(=O)Nc2ccc(F)c(Nc3ncnc4ccc(-c5ccc(OC)nc5)nc34)c2F)c(C)c1 [Example 71]
23 | 1 to 10 | NC(=O)c1cccc(-c2ccc3ncnc(Nc4c(F)ccc(NS(=O)(=O)c5ccccc5Cl)c4F)c3n2)c1 [Example 80]
24 | 1 to 10 | NC(=O)c1ccc(-c2ccc3ncnc(Nc4c(F)ccc(NS(=O)(=O)c5ccccc5Cl)c4F)c3n2)cc1 [Example 81]
25 | < 0.5 | Nc1cccc2c1nnn2-c1ccc2ncnc(Nc3c(F)ccc(NS(=O)(=O)c4ccccc4Cl)c3F)c2n1 [Example 92]
26 | < 0.5 | O=C(c1cn(-c2ccc3ncnc(Nc4c(F)ccc(NS(=O)(=O)c5ccccc5Cl)c4F)c3n2)c2ccccc12)N1CCOCC1 [Example 109]
27 | < 0.5 | Cc1c(Cl)cccc1S(=O)(=O)Nc1ccc(F)c(Nc2ncnc3ccc(-n4nc(C(=O)N5CCNCC5)c5ccccc54)nc23)c1F [Example 127]

system: pERK in SW480 cells (KRAS G12D); assay: Phospho-ERK inhibition (AlphaLISA), SW480; format: cell-based, human; settings: SW480 cells; Ymin in brackets
Experimental: as §1, §2, §3, §4, §5, §6, §7

Row | Structure (SMILES) | SW480 pERK Ymin % [%]
28 | COc1ccc(S(=O)(=O)Nc2ccc(F)c(Nc3ncnc4ccc(-c5cccc(CO)c5)nc34)c2F)c(C)c1 [Ex 74] | 3.3
29 | N#Cc1cccc(-c2ccc3ncnc(Nc4c(F)ccc(NS(=O)(=O)c5ccccc5Cl)c4F)c3n2)c1 [Ex 77] | 2
30 | N#Cc1ccc(-c2ccc3ncnc(Nc4c(F)ccc(NS(=O)(=O)c5ccccc5Cl)c4F)c3n2)cc1 [Ex 78] | 1
31 | COc1ccc(S(=O)(=O)Nc2ccc(F)c(Nc3ncnc4ccc(-n5cnc6c(NC(C)=O)cccc65)nc34)c2F)c(C)c1 [Ex 79] | 9.4
32 | Cc1c([N+](=O)[O-])ncn1-c1ccc2ncnc(Nc3c(F)ccc(NS(=O)(=O)c4ccccc4Cl)c3F)c2n1 [Ex 82] | 2
33 | COc1ccc(S(=O)(=O)Nc2ccc(F)c(Nc3ncnc4ccc(-n5cc(C(N)=O)c6ccccc65)nc34)c2F)c(C)c1 [Example 69] | 3
34 | COc1ccc(S(=O)(=O)Nc2ccc(F)c(Nc3ncnc4ccc(-n5cnc6c([N+](=O)[O-])cccc65)nc34)c2F)c(C)c1 [Example 70] | 5
35 | COc1ccc(S(=O)(=O)Nc2ccc(F)c(Nc3ncnc4ccc(-c5ccc(OC)nc5)nc34)c2F)c(C)c1 [Example 71] | 8
36 | NC(=O)c1cccc(-c2ccc3ncnc(Nc4c(F)ccc(NS(=O)(=O)c5ccccc5Cl)c4F)c3n2)c1 [Example 80] | 10
37 | NC(=O)c1ccc(-c2ccc3ncnc(Nc4c(F)ccc(NS(=O)(=O)c5ccccc5Cl)c4F)c3n2)cc1 [Example 81] | 15
38 | Nc1cccc2c1nnn2-c1ccc2ncnc(Nc3c(F)ccc(NS(=O)(=O)c4ccccc4Cl)c3F)c2n1 [Example 92] | 18
39 | O=C(c1cn(-c2ccc3ncnc(Nc4c(F)ccc(NS(=O)(=O)c5ccccc5Cl)c4F)c3n2)c2ccccc12)N1CCOCC1 [Example 109] | −6.4
40 | Cc1c(Cl)cccc1S(=O)(=O)Nc1ccc(F)c(Nc2ncnc3ccc(-n4nc(C(=O)N5CCNCC5)c5ccccc54)nc23)c1F [Example 127] | −3.8

same assay, conditions: SW480 cells; class symbol before the bracket

Row | Structure (SMILES) | IC50 [µM]
41 | COc1ccc(S(=O)(=O)Nc2ccc(F)c(Nc3ncnc4ccc(-c5cccc(CO)c5)nc34)c2F)c(C)c1 [Ex 74] | 1 to 10
42 | N#Cc1cccc(-c2ccc3ncnc(Nc4c(F)ccc(NS(=O)(=O)c5ccccc5Cl)c4F)c3n2)c1 [Ex 77] | 1 to 10
43 | N#Cc1ccc(-c2ccc3ncnc(Nc4c(F)ccc(NS(=O)(=O)c5ccccc5Cl)c4F)c3n2)cc1 [Ex 78] | 1 to 10
44 | COc1ccc(S(=O)(=O)Nc2ccc(F)c(Nc3ncnc4ccc(-n5cnc6c(NC(C)=O)cccc65)nc34)c2F)c(C)c1 [Ex 79] | 0.5 to 1
45 | Cc1c([N+](=O)[O-])ncn1-c1ccc2ncnc(Nc3c(F)ccc(NS(=O)(=O)c4ccccc4Cl)c3F)c2n1 [Ex 82] | 1 to 10
46 | COc1ccc(S(=O)(=O)Nc2ccc(F)c(Nc3ncnc4ccc(-n5cc(C(N)=O)c6ccccc65)nc34)c2F)c(C)c1 [Example 69] | 1 to 10
47 | COc1ccc(S(=O)(=O)Nc2ccc(F)c(Nc3ncnc4ccc(-n5cnc6c([N+](=O)[O-])cccc65)nc34)c2F)c(C)c1 [Example 70] | 1 to 10

Other lines, results leading:

Row | IC50 [µM] | Structure (SMILES)
48 | 1 to 10 | COc1ccc(S(=O)(=O)Nc2ccc(F)c(Nc3ncnc4ccc(-c5ccc(OC)nc5)nc34)c2F)c(C)c1 [Example 71]
49 | 1 to 10 | NC(=O)c1cccc(-c2ccc3ncnc(Nc4c(F)ccc(NS(=O)(=O)c5ccccc5Cl)c4F)c3n2)c1 [Example 80]
50 | 1 to 10 | NC(=O)c1ccc(-c2ccc3ncnc(Nc4c(F)ccc(NS(=O)(=O)c5ccccc5Cl)c4F)c3n2)cc1 [Example 81]
51 | < 0.5 | Nc1cccc2c1nnn2-c1ccc2ncnc(Nc3c(F)ccc(NS(=O)(=O)c4ccccc4Cl)c3F)c2n1 [Example 92]
52 | < 0.5 | O=C(c1cn(-c2ccc3ncnc(Nc4c(F)ccc(NS(=O)(=O)c5ccccc5Cl)c4F)c3n2)c2ccccc12)N1CCOCC1 [Example 109]
53 | < 0.5 | Cc1c(Cl)cccc1S(=O)(=O)Nc1ccc(F)c(Nc2ncnc3ccc(-n4nc(C(=O)N5CCNCC5)c5ccccc54)nc23)c1F [Example 127]
